Where a SMILES comes first, the peptide text is derived from it. Side-chain parts run from the residue outwards. [ ]: non-standard residue; d: D form. The star is where a group is joined. dPhe(4-Cl) = N[C@H](Cc1ccc(Cl)cc1)C(=O)O; d2Nal = N[C@H](Cc1ccc2ccccc2c1)C(=O)O; Lys(iPr) = CC(C)NCCCC[C@H](N)C(=O)O; NMeY = CN[C@@H](Cc1ccc(O)cc1)C(=O)O; Pyrazinecarbonyl = O=C(c1cnccn1)*; d3Pal = N[C@H](Cc1cccnc1)C(=O)O; Nicotinoyl = O=C(c1cccnc1)*; azaGly = NNC(=O)O; Sar = CNCC(=O)O
Target: T1, LHRH receptor (Rattus norvegicus, UniProt P30969)
T1 construct: endogenous in cells
T1 sequence (P30969 1-327): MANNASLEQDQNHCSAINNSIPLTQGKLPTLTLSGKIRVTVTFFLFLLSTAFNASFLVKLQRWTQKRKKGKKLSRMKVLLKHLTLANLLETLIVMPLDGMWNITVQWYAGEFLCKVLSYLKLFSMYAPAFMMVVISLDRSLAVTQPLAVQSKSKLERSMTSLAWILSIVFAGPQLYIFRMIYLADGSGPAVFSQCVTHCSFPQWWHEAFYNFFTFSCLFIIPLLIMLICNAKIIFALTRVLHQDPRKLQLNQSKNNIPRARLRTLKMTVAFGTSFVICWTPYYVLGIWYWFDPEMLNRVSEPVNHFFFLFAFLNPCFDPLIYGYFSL
Experiment: in vitro LHRH antagonist potency (pA2) against the agonist leuprolide
Format: cell-based
Conditions: negative logarithm of the antagonist concentration which shifts the response curve produced by the agonist leuprolide to two-fold higher concentration
How it was run: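 Functional antagonism against the agonist leuprolide. pA2 is the negative log of antagonist concentration that shifts the leuprolide response curve to twofold higher concentration.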

SMILES | Kb
CC(=O)N[C@H](Cc1ccc2ccccc2c1)C(=O)N[C@H](Cc1ccc(Cl)cc1)C(=O)N[C@H](Cc1cccnc1)C(=O)N[C@@H](CO)C(=O)N(C)[C@@H](Cc1ccc(O)cc1)C(=O)N[C@H](CCCCNC(=O)[C@@H](CO)NC(=O)c1cnccn1)C(=O)N[C@@H](CC(C)C)C(=O)N[C@@H](CCCNC(=N)N)C(=O)N1CCC[C@H]1C(=O)N[C@H](C)C(N)=O [Example 50g, NAc-D2Nal^1 -D4ClPhe^2 -D3Pal^3 -Ser^4 -NMeTyr^5 -DLys(N-epsilon-DSer-2-Pyrazinecarbonyl)^6 -Leu^7 -Arg^8 -Pro^9 -DAla^10 NH2] (Ac-[d2Nal][dPhe(4-Cl)][d3Pal]S[NMeY][dK]([dS-Pyrazinecarbonyl])LRP[dA]-NH2) | 0.0126 nM
CC(=O)N[C@H](Cc1ccc2ccccc2c1)C(=O)N[C@H](Cc1ccc(Cl)cc1)C(=O)N[C@H](Cc1cccnc1)C(=O)N[C@@H](CO)C(=O)N(C)[C@@H](Cc1ccc(O)cc1)C(=O)N[C@H](CCCCNC(=O)NNC(=O)c1cccnc1)C(=O)N[C@@H](CC(C)C)C(=O)N[C@@H](CCCCNC(C)C)C(=O)N1CCC[C@H]1C(=O)N(C)CC(N)=O [Example 60, NAc-D2Nal^1 -D4ClPhe^2 -D3Pal^3 -Ser^4 -NMeTyr^5 -DLys(N-epsilon-Azagly-Nicotinyl)^6 -Leu^7 -Lys(N-epsilon-Isopropyl)^8 -Pro^9 -Sar^10 NH2] (Ac-[d2Nal][dPhe(4-Cl)][d3Pal]S[NMeY][dK]([azaGly-Nicotinoyl])L[Lys(iPr)]P[Sar]-NH2) | 0.0282 nM
